Measured values published in patent publication US7531500B2, “Preventing airway mucus production by administration of EGF-R antagonists” (The Regents of the University of California, priority 1998, dated 2009).

Experiments:
[1] = system: NCI-H292 cells; test: In situ hybridization for MUC5AC gene in NCI-H292 cells (Example 2); format: cell-based, human; settings: within 12 h
Procedure: Cell Culture. NCI-H292 cells, a human pulmonary mucoepidermoid carcinoma cell line, were grown in RPMI 1640 medium containing 10% fetal bovine serum, penicillin (100 U/ml), streptomycin (100 μg/ml) and Hepes (25 mM) at 37° C. in a humidified 5% CO2, water-jacketed incubator. Either 6-well culture plates or 8-chamber slides were used to culture the cells. When confluent, cells were incubated for 1 h with neutrophils (10^6 cells/ml) alone, TNFα alone (recombinant human TNFα, 20 ng/ml, Genzyme, Cambridge, Mass.), IL-8 (recombinant human IL-8, 10^−8 M, Genzyme) alone, fMLP (10^−8 M, Sigma, St. Louis, Mo.) alone, TNFα plus neutrophils, IL-8 plus neutrophils, fMLP plus neutrophils, hydrogen peroxide (H2O2, 200 μM), cigarette smoke solution or TGFα (recombinant human TGFα, 0.1-25 ng/ml, Calbiochem, San Diego, Calif.). The cells were then washed and incubated with fresh medium alone. Experiments were terminated at preselected times (for mRNA, 6 h and 12 h; for protein, 24 h). As controls, cells were incubated with medium alone for same time periods. […] NCI-H292 cells were incubated for 1 h with either neutrophils that had been incubated with TNFα (20 ng/ml) for 1 h and then washed with sterile PBS to avoid contamination with the supernatant (e.g., molecules released from neutrophils), or the NCI-H292 cells were incubated with supernatant only. […]

[2] = molecular target: EGFR (Homo sapiens, UniProt P00533); test: Immunoblotting for activated EGFR in NCI-H292 cells; format: cell-based; set-up: NCI-H292 cells expressed EGSR mRNA constitutively; endogenous in cells; host or cells: NCI-H292 (human pulmonary mucoepidermoid carcinoma); settings: stimulated 15 minutes
Procedure: Cells were serum-starved for 24 hours and then stimulated with cigarette smoke solution or with TGFα for 15 minutes. After stimulation, cells were lysed with lysis buffer (20 mM sodium phosphate, pH 7.8, 150 mM NaCl, 5 mM EDTA, 50 mM HEPES, 1% Triton-X100, 50 mM NaF, 1 mM sodium orthovanadate, 5 mM PMSF, and 10 μg/ml each of leupeptin and aprotinin) and incubated for 30 minutes at 4° C. To remove insoluble materials, cell lysates were centrifuged at 14,000 rpm for 5 minutes at 4° C. Aliquots of supernatants containing equal amounts of protein were suspended in SDS sample buffer and boiled for 5 minutes. Proteins were separated by SDS-PAGE in 4-15% acrylamide gel. The resulting gel was equilibrated in the transfer buffer: 25 mM Tris-HCl, 192 mM glycine, 20% (vol/vol) methanol, pH 8.3. The proteins were then transferred electrophoretically to nitrocellulose membranes, which were incubated with 5% fat-free skimmed milk in PBS containing 0.05% Tween 20 for 1 hour and then incubated with anti-phospho-specific EGFR mAb (2 μg/ml, Calbiochem) overnight. Bound Ab was visualized according to a standard protocol for the avidin-biotin-alkaline phosphatase complex method (ABC kit, Vector Laboratories, Burlingame, Calif.).

- EGFR-specific tyrosine phosphorylation [2]: increased
Substance: TGFα: transforming growth factor alpha, EGF-R ligand (recombinant human; rat synthetic in vivo)
- MUC5AC gene expression [1]: up-regulated
